The values that follow are results of earlier work, collected in patent US20170342372A1, “CELL CULTURE MEDIA” (MERCK PATENT GMBH, priority 2014, published 2017).

For this series the following is noted: water / aqueous solvents.

Consider `N[C@@H](CSSC[C@H](N)C(=O)O)C(=O)O` [cystine], for which the “solubility in water (in words)” value is “poorly soluble”.
In the case of `CC[C@H](C)[C@H](N)C(=O)O` [isoleucine], the “solubility in water (in words)” value is “moderate solubility”.
For `CC(C)C[C@H](N)C(=O)O` [leucine], the “solubility in water (in words)” value is given as “moderate solubility”.
As to `CC(C)[C@H](N)C(=O)O` [valine], the “solubility in water (in words)” value is recorded as “moderate solubility”.
